Source: US6486199B1, “Spiro and dispiro 1,2,4-trioxolane antimalarials” (Medicines for Malaria Venture MMV International Centre …, priority 2001, dated 2002)
Values after ≈ are worked out from the molar mass of the structure shown. Read-outs that look alike come from different tables or passages of the source. Marks after values point to notes of the source that are not given here.

Legend:
[1] = test system: adult schistosomes (49-day-old) of Schistosoma mansoni; experiment: effect on adult schistosomes (49-day-old) in mice; assay type: in vivo; conditions: single 400 mg/kg per os; for TWR (%): total worm reduction rate; for Mean total worm burden: x ± SD
Method: Mice were infected with 100 Schistosoma mansoni cercariae […]. Each group was treated per os with OZ compounds at a single dose of 400 mg/kg. Untreated mice served as the control. All groups were killed 4 weeks after treatment and the liver and intestine were removed and separated. The liver and intestine were compressed and alive male and female worms could be seen and counted.

[2] = test system: ANKA strain of P. Berghei; experiment: single dose STI in vivo screen in infected Moro SPF mice; conditions: for in vivo activity: 10 mg/kg po/sc data of Table 2; for Activity (%) po / Activity (%) sc: percent reduction in parasitemia day 3 post-infection; for Activity (%) po / Survival (days) po: single 10 mg/kg po; for Activity (%) sc / Survival (days) sc: single 10 mg/kg sc; for inhibition in vivo at 10 mg/kg: Plasmodium berghei, 72 h
[3] = differential scanning calorimetry (DSC), thermal stability; assay type: physicochemical; conditions: thermal decomposition
[4] = test system: chloroquine-resistant K1 strain of P. falciparum; experiment: in vitro screen against chloroquine-resistant K1 strain of P. falciparum; assay type: cell-based; conditions: for IC50: Plasmodium falciparum, K1, read-out: IC50 (ng/ml) K1; for in vitro potency, fold less potent than the analog / IC50 (ng/ml) K1: in vitro; for IC50 (ng/ml) K1: K1 strain
[5] = test system: 21-day-old schistosomules of Schistosoma mansoni; experiment: effect on 21-day-old schistosomules in mice; assay type: in vivo; conditions: single 200 mg/kg per os; for FWR (%): female worm reduction rate; for Mean female worm burden: mean ± standard deviation; for TWR (%): total worm reduction rate
Method: […] Each group was treated per os with OZ compounds at a single dose of 200 mg/kg. Untreated mice served as the control. All groups were killed 4 weeks after treatment and the liver and intestine were removed and separated. The liver and intestine were compressed and alive male and female worms could be seen and counted. The effect of the compounds was evaluated by mean total and female worm burden.

[6] = test system: chloroquine-sensitive NF54 strain of P. falciparum; experiment: in vitro screen against chloroquine-sensitive NF54 strain of P. falciparum; assay type: cell-based; conditions: for IC50: Plasmodium falciparum, NF54, read-out: IC50 (ng/ml) NF54; for IC50 (ng/ml) NF54: in vitro, NF54 strain
P. berghei [7] = experiment: 1-day Peters test against P. berghei in vivo; conditions: for ED50 / ED90: Plasmodium berghei, 24 h; for ED90: read-out: P. berghei (1 day) ED90 po
parasitemia = experiment: onset of drug action and recrudescence after single oral dose; assay type: in vivo; conditions: for Recrudescence (>5% parasitemia) occurs on day: single 100 mg/kg po on day +3 post-infection
Method: The reduction of parasitemia was monitored 12 h after treatment, and the time of recrudescence was assessed by daily blood smears for 14 days, followed by intermittent assessment for up to 30 days.

P. berghei [8] = experiment: 4-day Peters test against P. berghei in vivo; conditions: 4 day
[9] = po, read-out: P. berghei (1 day) ED50 po
[10] = sc, read-out: P. berghei (1 day) ED50 sc

| SMILES | Percentage of dead worm [1] | Total dead worm [1] | TWR (%) [1] [%] | Mean total worm burden [1] | Activity (%) po [2] | Activity (%) sc [2] | Tm dec. (° C.) [3] [°C] | IC50 [4] [ng/mL] | in vitro potency, fold less potent than the analog [4] | FWR (%) [5] [%] | Mean female worm burden [5] | TWR (%) [5] [%] | IC50 [6] [ng/mL] | Survival (days) po [2] | Survival (days) sc [2] | P. berghei (1 day) ED90 sc (P. berghei [7]; sc) [mg/kg] | also measured |
| --- | --- | --- | --- | --- | --- | --- | --- | --- | --- | --- | --- | --- | --- | --- | --- | --- | --- |
| O=C1CCC2(CC1)OOC1(CCCCCCCCCCC1)O2 [OZ21, 3-Oxo-7,20,21-trioxadispiro[5.1.11.2]heneicosane] | 0 | 0 | 0 | 36.2 ± 9.0 | 0/0% | 0/0% | 190.7 | 14 (≈ 0.0451 µM) | 70 fold | 0 | 15.0 ± 9.7 | 0 | 25 (≈ 0.0805 µM) | – | – | – | in vivo activity [2]: all in vivo activity was lost |
| O=[N+]([O-])c1ccc(NN=C2CCC3(CC2)OOC2(O3)C3CC4CC(C3)CC2C4)c([N+](=O)[O-])c1 (stereo not drawn) [OZ29, Adamantane-2-spiro-3′-1′,2′,4′-trioxaspiro[4.5] decan-8′-one 2,4-dinitrophenylhydrazone] | 0 | 0 | 13.4 | 31.0 ± 13.7^a | 0/0% | 0/0% | 155.7 | 9.7 (≈ 0.0212 µM) | – | 20 | 10.0 ± 3.7^a | 28 | 13 (≈ 0.0284 µM) | 5.0/5.0 days | 5.0/5.0 days | – | – |
| C[C@H]1[C@H](OC(=O)CCC(=O)O)O[C@@H]2O[C@@]3(C)CC[C@H]4[C@H](C)CC[C@@H]1[C@@]24OO3 [Artesunate, artesunate, reference compound] | – | – | – | – | – | – | – | 1.2 (≈ 0.00312 µM) | – | – | – | – | 1.2 (≈ 0.00312 µM) | 7.1 days | 8.0 days | 16 | ED50 (P. berghei [7]; [9]): 5 mg/kg; ED90 (P. berghei [7]; po): 13 mg/kg; ED50 (P. berghei [7]; [10]): 0.86 mg/kg; Recrudescence (>5% parasitemia) occurs on day (parasitemia): 2 days; onset of action: decline in parasitemia (parasitemia; single 100 mg/kg po, monitored 12 h after treatment): rapid decline in parasitemia; inhibition in vivo at 10 mg/kg ([2]; po, read-out: Activity (%) po): 83.3%; inhibition in vivo at 10 mg/kg ([2]; sc, read-out: Activity (%) sc): 81.1% |
| C1CCCCCC2(CCCCC1)OOC1(O2)C2CC3CC(C2)CC1C3 (stereo not drawn) [OZ20, Adamantane-2-spiro-3′-1′,2′,4′-trioxaspiro[4.11]hexadecane] | 0 | 0 | 0 | 38.6 ± 3.6 | – | – | 170.5 | 15 (≈ 0.043 µM) | order of magnitude | 0 | 13.8 ± 5.5 | 0 | 20 (≈ 0.0574 µM) | – | – | 10 | ED50 (P. berghei [7]; [9]): 4.3 mg/kg; ED90 (P. berghei [7]; po): 9.7 mg/kg; ED50 (P. berghei [7]; [10]): 7.1 mg/kg |
| c1ccc(C2CCC3(CC2)OOC2(O3)C3CC4CC(C3)CC2C4)cc1 (stereo not drawn) [OZ27, Adamantane-2-spiro-3′-8′-phenyl-1′,2′,4′-trioxaspiro[4.5]decane] | 9.6 (15/157) | 15 | 19.6 | 28.4 ± 9.5^a | – | – | 161.7 | – | – | 58 | 5.2 ± 1.6^b | 63 | – | – | – | 3.1 | P. berghei (1 day) ED50 po (P. berghei [7]; po): 1.9 mg/kg; P. berghei (1 day) ED90 po (P. berghei [7]; po): 3.2 mg/kg; P. berghei (1 day) ED50 sc (P. berghei [7]; sc): 1.8 mg/kg; oral activity based on po ED50/ED90 values (P. berghei [7]; po, ranking among trioxolanes and controls): only slightly less orally active than OZ11; duration of action compared with artemether (parasitemia; single 100 mg/kg po): longer; Recrudescence (>5% parasitemia) occurs on day (parasitemia): 11 days; antimalarial activity, overall assessment ([2]; overall judgement of in vitro and in vivo data of Table 2): excellent activity; P. berghei (4 day) ED50 po (P. berghei [8]): 1.3 mg/kg; P. berghei (4 day) ED90 po (P. berghei [8]): 2.6 mg/kg; P. berghei (4 day) ED50 sc (P. berghei [8]): 0.2 mg/kg; P. berghei (4 day) ED90 sc (P. berghei [8]): 0.9 mg/kg; IC50 (ng/ml) K1 [4]: 2.2 ng/mL (≈ 0.00646 µM); IC50 (ng/ml) NF54 [6]: 4.8 ng/mL (≈ 0.0141 µM) |
| CC1(C)COC2(CCC3(CC2)OOC2(CC(C)(C)CC(C)(C)C2)O3)OC1 [OZ36, 2,2,4,4,14,14-Hexamethyl-7,12,16,19,20-pentaoxatrispiro[5.1.2.5.2.2]icosane] | 0 | 0 | 0 | 40.2 ± 12.2 | 0/0% | 0/0% | 201.7 | 24 (≈ 0.0651 µM) | ~20 fold | 12 | 11.0 ± 4.0^a | 16 | 62 (≈ 0.168 µM) | 5.7/5.7 days | 5.7/5.7 days | – | in vivo activity [2]: all in vivo activity was lost |
| OC1CCC2(CC1)OOC1(O2)C2CC3CC(C2)CC1C3 (stereo not drawn) [OZ32, Adamantane-2-spiro-3′-8′-hydroxy-1′,2′,4′-trioxaspiro[4.5]decane] | 27.6 (50/181) | 50 | 26.8 | 26.2 ± 5.9^b | – | – | 147.9 | – | – | 70 | 3.8 ± 1.9^b | 73 | – | – | – | 2.1 | P. berghei (1 day) ED50 po (P. berghei [7]; po): 1.9 mg/kg; P. berghei (1 day) ED90 po (P. berghei [7]; po): 13 mg/kg; P. berghei (1 day) ED50 sc (P. berghei [7]; sc): > 1 mg/kg; P. berghei (4 day) ED50 po (P. berghei [8]): 2.6 mg/kg; P. berghei (4 day) ED90 po (P. berghei [8]): 5.1 mg/kg; P. berghei (4 day) ED50 sc (P. berghei [8]): 0.6 mg/kg; P. berghei (4 day) ED90 sc (P. berghei [8]): 1.3 mg/kg; IC50 (ng/ml) K1 [4]: 0.25 ng/mL (≈ 0.000892 µM); IC50 (ng/ml) NF54 [6]: 0.51 ng/mL (≈ 0.00182 µM) |
